Reference: US11426362B2, “Oral cannabinoid formulations” (GW Research Limited, priority 2017, dated 2022)

Experiments:
[1] = Antioxidant screening in the formulation; assay type: physicochemical; settings: alpha-tocopherol at 0.5% concentration in surfactant phase; ascorbic acid in aqueous phase
From the text: Alpha tocopherol and ascorbic acid were screened for their effectiveness for use within the formulation. Ascorbic acid was used in the aqueous phase whereas the alpha tocopherol was used in the surfactant phase in terms of order of addition.

[2] = oral and parenteral administration in animals; cited from earlier work
[3] = cited from earlier work

| SMILES | appearance of solutions containing the antioxidant [1] | acute toxicity [2] | further results |
| --- | --- | --- | --- |
| Cc1c(C)c2c(c(C)c1O)CC[C@@](C)(CCC[C@H](C)CCC[C@H](C)CCCC(C)C)O2 [alpha-tocopherol] | hazy |  |  |
| COC(=O)c1ccc(O)cc1 [methylparaben, methyl parahydroxybenzoate] |  | practically non-toxic |  |
| O=C1O[C@H]([C@@H](O)CO)C(O)=C1O [ascorbic acid] | clear colourless solutions |  |  |
| CCCOC(=O)c1ccc(O)cc1 [propyl paraben, propyl parahydroxybenzoate] |  | relatively non-toxic | permitted daily exposure (PDE) ([3]; adults and pediatric patients): 2 mg/kg/day |
| OC[C@H]1O[C@H](O[C@]2(CCl)O[C@H](CCl)[C@@H](O)[C@@H]2O)[C@H](O)[C@@H](O)[C@H]1Cl [Sucralose] |  |  | ADI limit ([3]; pediatric population): 5 mg/kg/day |
